# Experimental data published in US20100267561A1, “HERBICIDAL PYRIDAZINONE DERIVATIVES” (priority 2007, published 2010).
# Experiments:
# Format in all cases: in vivo
# [1] = tested on: canarygrass (Phalaris minor); assay: Test C pre-/postemergence plant response; settings: Preemergence
# Method in brief: (§1)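 Ratings ran from 0 (no effect) to 100 (complete control) and were made visually against untreated controls 15–25 days after treatment in a controlled growth environment. Application was preemergence and, for some chemicals, postemergence at the 1- to 4-leaf stage (2–18 cm). Formulation was a non-phytotoxic solvent mixture with surfactant.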
# [2] = tested on: pigweed (Amaranthus retroflexus); assay: Test C pre-/postemergence plant response; settings: Preemergence
# Method in brief: as §1
# [3] = tested on: annual bluegrass (Poa annua); assay: Test C pre-/postemergence plant response; settings: Preemergence
# Method in brief: as §1
# [4] = tested on: downy bromegrass (Bromus tectorum); assay: Test C pre-/postemergence plant response; settings: Preemergence
# Method in brief: as §1
# [5] = tested on: winter barley (Hordeum vulgare); assay: Test C pre-/postemergence plant response; settings: Preemergence
# Method in brief: as §1
# [6] = tested on: winter wheat (Triticum aestivum); assay: Test C pre-/postemergence plant response; settings: Preemergence
# Method in brief: as §1
# [7] = tested on: Italian ryegrass (Lolium multiflorum); assay: Test C pre-/postemergence plant response; settings: Preemergence
# Method in brief: as §1
# [8] = tested on: spring wheat (Triticum aestivum); assay: Test C pre-/postemergence plant response; settings: Preemergence
# Method in brief: as §1
# [9] = tested on: windgrass (Apera spica-venti); assay: Test C pre-/postemergence plant response; settings: Preemergence
# Method in brief: as §1
# [10] = tested on: blackgrass (Alopecurus myosuroides); assay: Test C pre-/postemergence plant response; settings: Preemergence
# Method in brief: as §1
# [11] = tested on: wild mustard (Sinapis arvensis); assay: Test C pre-/postemergence plant response; settings: Preemergence
# Method in brief: as §1
# [12] = tested on: green foxtail (Setaria viridis); assay: Test C pre-/postemergence plant response; settings: Preemergence
# Method in brief: as §1
# [13] = tested on: spring barley (Hordeum vulgare); assay: Test C pre-/postemergence plant response; settings: Preemergence
# Method in brief: as §1
# wild oat (Avena fatua) = assay: Test C pre-/postemergence plant response; settings: Preemergence
# Method in brief: as §1
# [14] = tested on: umbrella sedge (Cyperus difformis); assay: Test B flooded paddy test plant response
# Method in brief: (§2)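 Compounds were added directly to paddy water over 2-leaf-stage plants in pots flooded 3 cm above soil, water depth maintained. Visual injury scored against controls after 13 to 15 days in greenhouse, 0 (none) to 100 (complete control); dash indicates no result.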
# [15] = tested on: ducksalad (Heteranthera limosa); assay: Test B flooded paddy test plant response
# Method in brief: as §2
# [16] = 8 g ai/ha, scale 0 to 100 (0 no effect, 100 complete control)
# [17] = 16 g ai/ha, scale 0 to 100 (0 no effect, 100 complete control)
# [18] = 31 g ai/ha, scale 0 to 100 (0 no effect, 100 complete control)
# [19] = 62 g ai/ha, scale 0 to 100, 0 no effect, 100 complete control
# [20] = Flood (flooded paddy test), 62 g ai/ha, scale 0 to 100, 0 no effect, 100 complete control
# [21] = Flood (flooded paddy test), 125 g ai/ha, scale 0 to 100, 0 no effect, 100 complete control
# [22] = Flood (flooded paddy test), 250 g ai/ha, scale 0 to 100, 0 no effect, 100 complete control
# [23] = Flood, 31 g ai/ha, scale 0 to 100
structure (smiles),measurement,setting,value
"Cc1cn(-c2ccc(Cl)cc2)nc1-c1c(O)cnn(C)c1=O [Compound 30, 4-[1-(4-chlorophenyl)-4-methyl-1H-pyrazol-3-yl]-5-hydroxy-2-methyl-3(2H)-pyridazinone]","Plant response rating, Canarygrass",[1]; [16],0
same,"Plant response rating, Canarygrass",[1]; [17],0
same,"Plant response rating, Canarygrass",[1]; [18],65
same,"Plant response rating, Canarygrass",[1]; [19],90
same,"Plant response rating, Pigweed",[2]; [16],0
same,"Plant response rating, Pigweed",[2]; [17],0
same,"Plant response rating, Pigweed",[2]; [18],0
same,"Plant response rating, Pigweed",[2]; [19],0
same,"Plant response rating, Bluegrass",[3]; [16],0
same,"Plant response rating, Bluegrass",[3]; [17],0
same,"Plant response rating, Bluegrass",[3]; [18],0
same,"Plant response rating, Bluegrass",[3]; [19],0
same,"Plant response rating, Bromegrass, Downy",[4]; [16],0
same,"Plant response rating, Bromegrass, Downy",[4]; [17],0
same,"Plant response rating, Bromegrass, Downy",[4]; [18],0
same,"Plant response rating, Bromegrass, Downy",[4]; [19],0
same,"Plant response rating, Barley, Winter",[5]; [16],0
same,"Plant response rating, Barley, Winter",[5]; [17],0
same,"Plant response rating, Barley, Winter",[5]; [18],0
same,"Plant response rating, Barley, Winter",[5]; [19],15
same,"Plant response rating, Wheat, Winter",[6]; [16],0
same,"Plant response rating, Wheat, Winter",[6]; [17],0
same,"Plant response rating, Wheat, Winter",[6]; [18],0
same,"Plant response rating, Wheat, Winter",[6]; [19],0
same,"Plant response rating, Ryegrass, Italian",[7]; [16],0
same,"Plant response rating, Ryegrass, Italian",[7]; [17],30
same,"Plant response rating, Ryegrass, Italian",[7]; [18],60
same,"Plant response rating, Ryegrass, Italian",[7]; [19],75
same,"Plant response rating, Wheat, Spring",[8]; [16],0
same,"Plant response rating, Wheat, Spring",[8]; [17],0
same,"Plant response rating, Wheat, Spring",[8]; [18],0
same,"Plant response rating, Wheat, Spring",[8]; [19],20
same,"Plant response rating, Windgrass",[9]; [19],35
same,"Plant response rating, Blackgrass",[10]; [16],0
same,"Plant response rating, Blackgrass",[10]; [17],20
same,"Plant response rating, Blackgrass",[10]; [18],90
same,"Plant response rating, Blackgrass",[10]; [19],98
same,"Plant response rating, Mustard, Wild",[11]; [18],0
same,"Plant response rating, Foxtail, Green",[12]; [16],10
same,"Plant response rating, Foxtail, Green",[12]; [17],25
same,"Plant response rating, Foxtail, Green",[12]; [18],80
same,"Plant response rating, Foxtail, Green",[12]; [19],100
same,"Plant response rating, Barley, Spring",[13]; [16],0
same,"Plant response rating, Barley, Spring",[13]; [17],0
same,"Plant response rating, Barley, Spring",[13]; [18],30
same,"Plant response rating, Barley, Spring",[13]; [19],50
same,"Plant response rating, Oat, Wild",wild oat (Avena fatua); [16],0
same,"Plant response rating, Oat, Wild",wild oat (Avena fatua); [17],0
same,"Plant response rating, Oat, Wild",wild oat (Avena fatua); [18],30
same,"Plant response rating, Oat, Wild",wild oat (Avena fatua); [19],40
same,pest or weed control at 62 g/ha,"[14]; Cyperus difformis, Flood (flooded paddy test), 62 g ai/ha, scale 0 to 100, 0 no effect, 100 complete control, read-out: Plant response rating, Sedge, Umbrella",0%
same,pest or weed control at 125 g/ha,"[14]; Cyperus difformis, Flood (flooded paddy test), 125 g ai/ha, scale 0 to 100, 0 no effect, 100 complete control, read-out: Plant response rating, Sedge, Umbrella",0%
same,pest or weed control at 250 g/ha,"[14]; Cyperus difformis, Flood (flooded paddy test), 250 g ai/ha, scale 0 to 100, 0 no effect, 100 complete control, read-out: Plant response rating, Sedge, Umbrella",0%
same,pest or weed control at 31 g/ha,"[14]; Cyperus difformis, Flood, 31 g ai/ha, scale 0 to 100, read-out: Plant response rating, Sedge, Umbrella",0%
same,pest or weed control at 62 g/ha,"[15]; Heteranthera limosa, Flood (flooded paddy test), 62 g ai/ha, scale 0 to 100, 0 no effect, 100 complete control, read-out: Plant response rating, Ducksalad",0%
same,pest or weed control at 125 g/ha,"[15]; Heteranthera limosa, Flood (flooded paddy test), 125 g ai/ha, scale 0 to 100, 0 no effect, 100 complete control, read-out: Plant response rating, Ducksalad",0%
same,pest or weed control at 250 g/ha,"[15]; Heteranthera limosa, Flood (flooded paddy test), 250 g ai/ha, scale 0 to 100, 0 no effect, 100 complete control, read-out: Plant response rating, Ducksalad",0%
same,pest or weed control at 31 g/ha,"[15]; Heteranthera limosa, Flood, 31 g ai/ha, scale 0 to 100, read-out: Plant response rating, Ducksalad",0%
Cc1cc(-c2ccc(Cl)cc2)nn1-c1c(OC(=O)C(C)C)cnn(C)c1=O [Compound 34],"Plant response rating, Canarygrass",[1]; [16],0
same,"Plant response rating, Canarygrass",[1]; [17],20
same,"Plant response rating, Canarygrass",[1]; [18],65
same,"Plant response rating, Canarygrass",[1]; [19],100
same,"Plant response rating, Pigweed",[2]; [16],0
same,"Plant response rating, Pigweed",[2]; [17],0
same,"Plant response rating, Pigweed",[2]; [18],0
same,"Plant response rating, Pigweed",[2]; [19],0
same,"Plant response rating, Bluegrass",[3]; [16],0
same,"Plant response rating, Bluegrass",[3]; [17],0
same,"Plant response rating, Bluegrass",[3]; [18],0
same,"Plant response rating, Bluegrass",[3]; [19],35
same,"Plant response rating, Bromegrass, Downy",[4]; [16],0
same,"Plant response rating, Bromegrass, Downy",[4]; [17],0
same,"Plant response rating, Bromegrass, Downy",[4]; [18],10
same,"Plant response rating, Bromegrass, Downy",[4]; [19],60
same,"Plant response rating, Barley, Winter",[5]; [16],0
same,"Plant response rating, Barley, Winter",[5]; [17],0
same,"Plant response rating, Barley, Winter",[5]; [18],10
same,"Plant response rating, Barley, Winter",[5]; [19],35
same,"Plant response rating, Wheat, Winter",[6]; [16],0
same,"Plant response rating, Wheat, Winter",[6]; [17],10
same,"Plant response rating, Wheat, Winter",[6]; [18],25
same,"Plant response rating, Wheat, Winter",[6]; [19],60
same,"Plant response rating, Ryegrass, Italian",[7]; [16],30
same,"Plant response rating, Ryegrass, Italian",[7]; [17],100
same,"Plant response rating, Ryegrass, Italian",[7]; [18],100
same,"Plant response rating, Ryegrass, Italian",[7]; [19],100
same,"Plant response rating, Wheat, Spring",[8]; [16],0
same,"Plant response rating, Wheat, Spring",[8]; [17],0
same,"Plant response rating, Wheat, Spring",[8]; [18],50
same,"Plant response rating, Wheat, Spring",[8]; [19],90
same,"Plant response rating, Windgrass",[9]; [16],0
same,"Plant response rating, Windgrass",[9]; [17],0
same,"Plant response rating, Windgrass",[9]; [18],20
same,"Plant response rating, Windgrass",[9]; [19],60
same,"Plant response rating, Blackgrass",[10]; [16],0
same,"Plant response rating, Blackgrass",[10]; [17],20
same,"Plant response rating, Blackgrass",[10]; [18],75
same,"Plant response rating, Blackgrass",[10]; [19],85
same,"Plant response rating, Mustard, Wild",[11]; [17],0
same,"Plant response rating, Mustard, Wild",[11]; [18],0
same,"Plant response rating, Mustard, Wild",[11]; [19],0
same,"Plant response rating, Foxtail, Green",[12]; [16],30
same,"Plant response rating, Foxtail, Green",[12]; [17],100
same,"Plant response rating, Foxtail, Green",[12]; [18],100
same,"Plant response rating, Foxtail, Green",[12]; [19],100
same,"Plant response rating, Barley, Spring",[13]; [16],0
same,"Plant response rating, Barley, Spring",[13]; [17],0
same,"Plant response rating, Barley, Spring",[13]; [18],0
same,"Plant response rating, Barley, Spring",[13]; [19],70
same,"Plant response rating, Oat, Wild",wild oat (Avena fatua); [16],0
same,"Plant response rating, Oat, Wild",wild oat (Avena fatua); [17],0
same,"Plant response rating, Oat, Wild",wild oat (Avena fatua); [18],70
same,"Plant response rating, Oat, Wild",wild oat (Avena fatua); [19],75
same,"Plant response rating, Sedge, Umbrella",[14]; [20],0
same,"Plant response rating, Sedge, Umbrella",[14]; [21],0
same,"Plant response rating, Sedge, Umbrella",[14]; [22],0
same,"Plant response rating, Sedge, Umbrella",[14]; [23],0
same,"Plant response rating, Ducksalad",[15]; [20],0
same,"Plant response rating, Ducksalad",[15]; [21],30
same,"Plant response rating, Ducksalad",[15]; [22],40
same,"Plant response rating, Ducksalad",[15]; [23],0
